Laboratory results as given in a melting point compilation (Tetko et al.; mined from patent text by program, amines drawn as free bases though some values may be those of a salt).

SMILES | melting point [°C]
Cc1c(N2C[C@@H]3CCCN[C@@H]3C2)c(F)cc2c(=O)c(C(=O)O)cn([C@@H]3C[C@@H]3F)c12 | 244 to 245
CC(=O)Nc1c(Cl)c(C(C)(C)C)nn1-c1c(Cl)cc(C(F)(F)F)cc1Cl | 211
COc1cc(Sc2cc(F)cc(C3(OC)CCOCC3)c2)ccc1/C(C)=N/O | 155
CCC(=O)C1=C(O)CC(c2ccc3c(c2)CCC3)CC1=O (stereo not drawn) | 98
O=C(O)C(CC1CCCCC1)c1ccc(OCc2ccc3ccccc3n2)cc1 (stereo not drawn) | 148 to 150
CN(C)NC(=NS(=O)(=O)c1ccc(Cl)cc1)N1CC(c2ccccc2)C(c2ccc(Cl)cc2)=N1 (single isomer, unassigned; (-)) | 218 to 224
O=C1NCCn2c1cc1c2CCCC1 | 207 to 209
O=C1c2ccccc2C(=O)N1CCCSc1nccc(NC(=S)NCC(F)(F)F)n1 | 214 to 215
CCN1C(=O)C(C)(C)C(=O)N(C)c2cc(CN(CCn3ccc4occc4c3=O)Cc3cc(C)nn3C)ccc21 | 161 to 165
COC(=O)CCC(=O)N(O)c1cccc(OCc2nc3ccccc3s2)c1 | 123 to 125
Cc1ccc(-c2ssc(=S)c2C)nn1 | 168
C=CCn1c(=O)c2[nH]c(/C=C/c3ccc(OC)c(OC)c3)nc2n(CC=C)c1=O | 252
Cc1ccc(-c2nc(CCCOS(=O)(=O)c3ccc(C)cc3)c(C(F)(F)F)o2)cc1 | 57 to 58
CCCCCCC(C)N(Cc1ccc(CC(C)(C)C)cc1)C(Nc1cc(C(C)(C)C)c(O)c(C(C)(C)C)c1)=C1C(=O)COC1=O (stereo not drawn) | 158 to 160
COC(=O)c1cc2c(O)c(C(=O)NCc3ccc(Cl)cc3)cnc2s1 | 238 to 240
COc1cc(NC(=O)Oc2ccc(N(CCCl)CCCl)cc2)cc(Nc2c3ccccc3nc3ccccc23)c1 | 179 to 180
CN(C)c1[nH]c(=S)n(C2CCc3ccccc3C2)c1N(C)C (stereo not drawn) | 182 to 184
CCOc1cc(-c2ccccc2)nc2nn(C)cc12 | 170 to 171
COC(=O)CC1Sc2ccc([N+](=O)[O-])cc2CN(CCc2ccccc2)C1=O (stereo not drawn) | 205 to 208
C[C@H](Cn1cnc2c(=O)[nH]c(N)nc21)OCP(=O)(O)O | 270 to 272
COc1ccc2nc(C(=O)Nc3nnn(Cc4ccc(Cl)c(Cl)c4)c3C)sc2c1 | 176
CCC(O)(Cn1cncn1)C(C)(C)Cc1ccc(Cl)cc1 (stereo not drawn) | 124 to 125
COc1ccc(Cl)cc1C(=O)NC1Cc2cc(S(N)(=O)=O)c(OC)cc2OC1(C)C (stereo not drawn) | 228
Cc1cc(C=O)ccc1C(O)c1cccnc1 (stereo not drawn) | 97.5 to 99

SMILES | melting point [°C]
CCCOc1ccccc1-c1nc2nc(NCC(F)(F)F)ncc2c(=O)[nH]1 | 214 to 216
COc1ccc2c(Cl)ccnc2c1 | 86 to 88
O=[N+]([O-])c1cc(OCc2ccccc2)ccc1CCBr | 30 to 34
CCCc1ccc(-c2ncc(C#N)cn2)cc1 | 126
OC(CCC1CCNCC1)c1cc(C2CCCCC2)nc2ccccc12 (stereo not drawn) | 190 to 191
C[C@H](Nc1ncnc2[nH]cnc12)c1oc2ccc(F)cc2c(=O)c1-c1ccccc1 | 196 to 198
CC(=O)Nc1cccc2c1S(=O)(=O)N=C2C1=C(O)C(C(C)(C)C)N(Cc2ccc(F)cc2)C1=O (stereo not drawn) | 164 to 167
COc1ccccc1C(=O)Nc1nc2c(s1)CN(C)CC2 | 164 to 166
COc1ccc(CCCc2cnc(N)nc2N)cc1 | 151 to 154
CS(=O)(=O)c1cnc2c(c1)CCC(c1ccc(Cl)c(Cl)c1)O2 (stereo not drawn) | 172
c1ccc2c(c1)nc1n2CCCO1 | 116 to 118
COc1cc(C)nc(NC(=O)NS(=O)(=O)N(C)S(C)(=O)=O)n1 | 118 to 120
CCOC(=O)C1=C(COCCN=[N+]=[N-])NC(C)=C(C(=O)OC)C1c1ccccc1Cl (stereo not drawn) | 145 to 146
CCCCc1ncc(/C=C(\Cc2ccc(OC)cc2)c2nnn[nH]2)n1Cc1ccccc1Cl | 168 to 171
O=C(O)c1ccc2c(c1)C=C(CCN1CCCC1)CC2 | 202 to 203
OCc1c(CN2CCN(c3ccc(Cl)cc3Cl)CC2)nc2ccc(Cl)cn12 | 165 to 166
CCOC(=O)Cc1c(-c2cccnc2)c2cc(CN3CCN(c4ccccc4)CC3)c(Cl)cc2oc1=O | 153 to 157
CCNc1nc(C)c(-c2ccnc(Nc3ccc(N4CCN(C(C)=O)CC4)cc3)n2)s1 | 208 to 209
CCc1nc2c(C)cc(C)nc2n1-c1ccc(CC(C)NC(=O)NS(=O)(=O)c2ccc(C)cc2)cc1 (stereo not drawn) | 128
CC(=O)N1CCc2c(sc(C)c2CCN2CCC(c3nn(-c4ccc(F)cc4)c4cc(F)ccc34)CC2)C1 | 193 to 196
Cc1ccc(C(=O)c2cnoc2C2CC2)cc1S(C)(=O)=O | 126 to 128
CCc1cnc2c(NC(=O)c3c(Cl)cccc3Cl)cccc2c1-n1ccnc1 | 187 to 188
COc1cc(N)c(Cl)cc1Cn1nc(-c2ccc(C(F)(F)F)cc2)[nH]c1=O | > 270
O=C1N[C@H](Cc2ccc(CC(F)(F)C(F)(F)F)cc2)[C@H](c2cccc(Cl)c2)O1 (racemic) | 137 to 138
